Data set [1] deals with HuapoAI transgenic mice. Description: Evaluation of triglyceride and cholesterol level in HuapoAI transgenic mice. In kind it is in vivo. Particulars: for change in vivo at 30 mg/kg / inhibition in vivo at 30 mg/kg: Mus musculus, 168 h, 30 mg/kg daily oral gavage 7 days; for change in vivo at 30 mg/kg: percent increase in FPLC HDLc area under the curve; for inhibition in vivo at 30 mg/kg: serum, male human apoAI transgenic mice, read-out: % Triglyceride Reduction. The method, then:
Five to six week old male mice, transgenic for human apoAI [C57Bl/6-tgn(apoa1)lrub, Jackson Laboratory, Bar Harbor, Me.] were housed five per cage (10″×20″×8″ with aspen chip bedding) with food (Purina 5001) and water available at all times. After an acclimation period of 2 weeks, animals were individually identified by ear notches, weighed, and assigned to groups based on body weight. Beginning the following morning, mice were dosed daily by oral gavage for 7 days using a 20 gauge, 1½″ curved disposable feeding needle (Popper & Sons). Treatments were test compounds (30 mg/kg), a positive control (fenofibrate, 100 mg/kg) or vehicle [1% carboxymethylcellulose (w/v)/0.25% Tween80 (w/v); 0.2 ml/mouse]. Prior to termination on day 7, mice were weighed and dosed. Three hours after dosing, animals were anesthetized by inhalation of isoflurane (2-4%; Abbott Laboratories, Chicago, Ill.) and blood obtained via cardiac puncture (0.7-1.0 ml). Whole blood was transferred to serum separator tubes (Vacutainer SST), chilled on ice, and permitted to clot. Serum was obtained after centrifugation at 4° C. and frozen until analysis for triglycerides, total cholesterol, compound levels, and serum lipoprotein profile by fast protein liquid chromatography (FPLC) coupled to an inline detection system. After sacrifice by cervical dislocation, the liver, heart and epididymal fat pads were excised and weighed.
The animals dosed with vehicle had average triglycerides values of 60-80 mg/dl, which were reduced by the positive control fenofibrate (33-58 mg/dl with a mean reduction of 37%). The animals dosed with vehicle had average total serum cholesterol values of 140-180 mg/dl, which were increased by fenofibrate (190-280 mg/dl, with a mean elevation of 41%). […] Fenofibrate increased the amount of HDLc (68-96 v-sec with a mean percent increase of 48%).
(§1) Glucose was measured colorimetrically using commercially purchased reagents (Sigma #315-500). According to the manufacturers, the procedures were modified from published work (McGowan, M. W., Artiss, J. D., Strandbergh, D. R. & Zak, B. Clin Chem, 20:470-5 (1974) and Keston, A. Specific colorimetric enzymatic analytical reagents for glucose. Abstract of papers 129th Meeting ACS, 31C (1956).); and depend on the release of a mole of hydrogen peroxide for each mole of analyte, coupled with a color reaction first described by Trinder (Trinder, P. Determination of glucose in blood using glucose oxidase with an alternative oxygen acceptor. Ann Clin Biochem, 6:24 (1969)). The absorbance of the dye produced is linearly related to the analyte in the sample. The assays were further modified in our laboratory for use in a 96 well format. Standards (Sigma #339-11, Sigma #16-11, and Sigma #CC0534 for glucose triglycerides and total cholesterol, respectively), quality control plasma (Sigma # A2034), and samples (2 or 5 μl/well) were measured in duplicate using 200 μl of reagent. An additional aliquot of sample, pipetted to a third well and diluted in 200 μl water, provided a blank for each specimen. Plates were incubated at room temperature (18, 15, and 10 minutes for glucose, triglycerides and total cholesterol, respectively) on a plate shaker (DPC Micormix 5) and absorbance read at 500 nm (glucose and total cholesterol) or 540 nm (triglycerides) on a plate reader (Wallac Victor 1420). Sample absorbances were compared to a standard curve (100-800, 10-500, and 100-400 mg/dl for glucose, triglycerides and total cholesterol, respectively). Values for the quality control sample were always within the expected range and the coefficient of variation for samples was below 10%. All samples from an experiment were assayed at the same time to minimize inter-assay variability.
Serum lipoproteins were separated and cholesterol quantitated with an in-line detection system. Sample was applied to a Superose® 6 HR 10/30 size exclusion column (Amersham Pharmacia Biotech) and eluted with phosphate buffered saline-EDTA at 0.5 ml/min. […]

The subject of data set [2] is db/db mice. Description: Evaluation of glucose levels in db/db mice. In kind it is in vivo. Particulars: Mus musculus, 168 h; 30 mg/kg daily oral gavage 7 days, male db/db mice; 100% = lean values; read-out: Glucose Normalization %. The method, then: Five week old male diabetic (db/db) mice [C57BlKs/j-m +/+ Lepr(db), Jackson Laboratory, Bar Harbor, Me.] or lean littermates (db+) were housed 6 per cage (10″×20″×8″ with aspen chip bedding) with food (Purina 5015) and water available at all times. After an acclimation period of 2 weeks, animals were individually identified by ear notches, weighed, and bled via the tail vein for determination of initial glucose levels. Blood was collected (100 μl) from unfasted animals by wrapping each mouse in a towel, cutting the tip of the tail with a scalpel, and milking blood from the tail into a heparinized capillary tube (Fisher) balanced on the edge of the bench. Sample was discharged into a heparinized microtainer with gel separator (VWR) and retained on ice. Plasma was obtained after centrifugation at 4° C. and glucose measured immediately. Remaining plasma was frozen until the completion of the experiment, when glucose and triglycerides were assayed in all samples. Animals were grouped based on initial glucose levels and body weights. Beginning the following morning, mice were dosed daily by oral gavage for 7 days using a 20 gauge, 1½″ curved disposable feeding needle. Treatments were test compounds (30 mg/kg), a positive control agent (30 mg/kg) or vehicle [1% carboxymethylcellulose (w/v)/0.25% Tween80 (w/v); 0.3 ml/mouse]. On day 7, mice were weighed and bled (tail vein) 3 hours after dosing. Twenty-four hours after the 7th dose (i.e., day 8), animals were bled again (tail vein). Samples obtained from conscious animals on days 0, 7 and 8 were assayed for glucose. After the 24 hour bleed, animals were weighed and dosed for the final time. Three hours after dosing on day 8, animals were anesthetized by inhalation of isoflurane and blood obtained via cardiac puncture (0.5-0.7 ml). Whole blood was transferred to serum separator tubes, chilled on ice and permitted to clot. Serum was obtained after centrifugation at 4° C. and frozen until analysis for compound levels. After sacrifice by cervical dislocation, the liver, heart and epididymal fat pads were excised and weighed.
The animals dosed with vehicle had average triglycerides values of 170-230 mg/dl, which were reduced by the positive PPARγ control (70-120 mg/dl with a mean reduction of 50%). Male db/db mice were hyperglycemic (average glucose of 680-730 mg/dl on the 7th day of treatment), while lean animals had average glucose levels between 190-230 mg/dl.
as §1, with “Sample absorbances were compared to a standard curve (100-800, 10-500, and 100-400 mg/dl for glucose, triglycerides and total cholesterol, respectively). Values for the quality control sample were always within the expected range and the coefficient of variation for samples was below 10%. All samples from an experiment were assayed at the same time to minimize inter-assay variability.” left out

For data set [3], the target named is T1, huPPARγ (Homo sapiens, UniProt P37231).
T1 sequence (P37231 1-505): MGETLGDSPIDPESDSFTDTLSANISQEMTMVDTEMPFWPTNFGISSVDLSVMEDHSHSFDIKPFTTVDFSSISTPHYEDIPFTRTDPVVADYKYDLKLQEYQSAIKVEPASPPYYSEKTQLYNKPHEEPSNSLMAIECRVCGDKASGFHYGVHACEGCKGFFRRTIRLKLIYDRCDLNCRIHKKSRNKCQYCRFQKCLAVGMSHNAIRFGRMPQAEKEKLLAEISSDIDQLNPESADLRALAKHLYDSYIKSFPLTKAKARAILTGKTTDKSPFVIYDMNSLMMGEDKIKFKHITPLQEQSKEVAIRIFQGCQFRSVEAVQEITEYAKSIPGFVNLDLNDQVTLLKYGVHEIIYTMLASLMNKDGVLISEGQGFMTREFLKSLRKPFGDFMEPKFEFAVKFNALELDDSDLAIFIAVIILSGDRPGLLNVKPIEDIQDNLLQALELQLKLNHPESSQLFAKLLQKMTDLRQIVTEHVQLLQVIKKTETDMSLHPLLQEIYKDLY
T1 sequence (P19793 1-462 partner): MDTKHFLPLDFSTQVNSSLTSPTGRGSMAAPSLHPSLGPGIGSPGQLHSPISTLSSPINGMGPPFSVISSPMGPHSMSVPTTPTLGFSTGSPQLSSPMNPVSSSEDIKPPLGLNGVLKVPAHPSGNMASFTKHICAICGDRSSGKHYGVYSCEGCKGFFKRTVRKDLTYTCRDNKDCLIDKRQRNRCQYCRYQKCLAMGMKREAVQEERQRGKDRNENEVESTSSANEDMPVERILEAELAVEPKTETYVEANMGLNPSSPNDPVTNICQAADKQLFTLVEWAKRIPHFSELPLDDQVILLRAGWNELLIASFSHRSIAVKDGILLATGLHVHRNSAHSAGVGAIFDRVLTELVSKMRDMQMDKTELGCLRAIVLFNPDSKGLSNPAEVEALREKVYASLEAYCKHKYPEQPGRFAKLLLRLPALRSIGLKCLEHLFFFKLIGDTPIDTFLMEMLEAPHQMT
Put plainly: Cotransfection assay in CV-1 cells, AOX PPRE luciferase reporter. More on the design: expressed in transfected cells; host or cells: CV-1 cells. In kind it is cell-based. Particulars: cotransfection efficacy relative to PPARγ agonist reference molecule. The method, then: (§2) DNA-dependent binding (ABCD binding) was carried out using SPA technology with PPAR receptors. Tritium-labeled PPARα and PPARγ agonists were used as radioligands for generating displacement curves and IC50 values with compounds of the invention. Cotransfection assays were carried out in CV-1 cells. The reporter plasmid contained an acylCoA oxidase (AOX) PPRE and TK promoter upstream of the luciferase reporter cDNA. Appropriate PPARs and RXRα were constitutively expressed using plasmids containing the CMV promoter. […] In order to eliminate such interference, a GAL4 chimeric system was used in which the DNA binding domain of the transfected PPAR was replaced by that of GAL4, and the GAL4 response element was utilized in place of the AOX PPRE. Cotransfection efficacy was determined relative to PPARα agonist and PPARγ agonist reference molecules. Efficacies were determined by computer fit to a concentration-response curve, or in some cases at a single high concentration of agonist (10 μM). For binding or cotransfection studies with receptors other than PPARs, similar assays were carried out using appropriate ligands, receptors, reporter constructs, etc., for that particular receptor.
(§3) These studies were carried out to evaluate the ability of compounds of the invention to bind to and/or activate various nuclear transcription factors, particularly huPPARα (“hu” indicates “human”) and huPPARγ. These studies provide in vitro data concerning efficacy and selectivity of compounds of the invention. Furthermore, binding and cotransfection data for compounds of the invention were compared with corresponding data for marketed compounds that act on either huPPARα or huPPARγ.
(§4) Binding and cotransfection data for representative compounds of the invention are compared with corresponding data for reference compounds in Table II.

For data set [4], the system named is huPPARα. Put plainly: Cotransfection assay in CV-1 cells, luciferase reporter (GAL4 chimeric system). The format is cell-based, human. Particulars: cotransfection efficacy relative to PPARα agonist reference molecule. The method, then: as §2, §3, §4
The mark [5] stands for this setting: 100 mg/kg daily oral gavage 7 days, versus vehicle.

In the case of `Cc1oc(-c2ccccc2)nc1COc1ccc(OC(C)(C)C(=O)O)cc1` [Example 4, 2-Methyl-2-[4-(5-methyl-2-phenyloxazol-4-ylmethoxy)phenoxy]propionic acid], the melting point lay within 136 to 138 °C.
In turn, `Cc1oc(-c2ccccc2)nc1CCOc1ccc(OC(C)(Cc2ccccc2)C(=O)O)cc1` (stereo not shown) [Example 6, 2-Methyl-2-{4-[2-(5-methyl-2-phenyloxazol-4-yl)ethoxy]phenoxy}-3-phenylpropionic acid] displayed a change in vivo at 30 mg/kg in data set [1] of 20%. Further, the inhibition in vivo at 30 mg/kg was 35.4% in data set [1] and 65% in data set [2].
In the case of `CCc1cc(OC(C)(C)C(=O)O)ccc1OCCc1nc(-c2ccccc2)oc1C` [Example 31A, 2-{3-Ethyl-4-[2-(5-methyl-2-phenyloxazol-4-yl)ethoxy]phenoxy}-2-methylpropionic acid], in data set [1], the change in vivo at 30 mg/kg was found to be 98% and the inhibition in vivo at 30 mg/kg is -6.4%. Moreover, the inhibition in vivo at 30 mg/kg in data set [2] was 19%.
As for `CC(C)(Oc1ccc(C(=O)c2ccc(Cl)cc2)cc1)C(=O)O` [Fenofibric acid, reference compound], the “huPPARγ CTF Eff. (%)” value in data set [3] came out at 0%. Moreover, the “huPPARα CTF Eff. (%)” value in data set [4] came out at 16%.
Take `Cc1c(C)c2c(c(C)c1O)CCC(C)(COc1ccc(CC3SC(=O)NC3=O)cc1)O2` (stereo not shown) [Troglitazone, reference compound]: in data set [4], the “huPPARα CTF Eff. (%)” value amounted to 0%.
Consider `CC(C)OC(=O)C(C)(C)Oc1ccc(C(=O)c2ccc(Cl)cc2)cc1` [fenofibrate, reference compound], for which, in data set [1] (100 mg/kg daily oral gavage 7 days, FPLC of pooled sera, vehicle 47-62 v-sec), the HDLc peak area is 68-96 v-sec. In addition, in data set [1] (setting [5]), the “mean elevation of total serum cholesterol” value was determined as 41%, the “mean percent increase of HDLc” value amounted to 48% and the “mean reduction of triglycerides” value was determined as 37%. Further, the average triglycerides values in data set [1] (100 mg/kg daily oral gavage 7 days, vehicle 60-80 mg/dl) was 33 to 58 mg/dL. In addition, the “average total serum cholesterol values” in data set [1] (100 mg/kg daily oral gavage 7 days, vehicle 140-180 mg/dl) lay in the range of 190 to 280 mg/dL.

Source of the values: patent publication US7351728B2, “Oxazolyl-aryloxyacetic acid derivatives and their use as PPAR agonists” (Eli Lilly and Company, priority 2003, dated 2008).
